Assay results reported in patent US11883509B2, “Pharmaceutical composition for inhalation administration for labeling pulmonary tumorous lesion, containing fluorescent contrast agent as active ingredient” (KOREA UNIVERSITY RESEARCH AND BUSINESS FOUNDATION, priority 2018, dated 2024).
“And” between values parts separate entries of the source, which are not always exact repeats. Identical values can stand only once.

Tests used:
Type in all cases: in vivo
[1] = Distribution of ICG administered to normal mice via airway and fluorescence duration
Description: It was investigated, when Indocyanine green (ICG) is administered via the airway of a subject through respiration, whether the lungs are stained properly, organs other than the lungs are also affected, how long the staining lasts, etc. More specifically, 0.25 mg/mL ICG were administered to normal mice for 10 minutes through respiration using the SciReq nebulizer, as shown in FIG. 1a. The, the ICG (2.5 mg/kg)-administered mice were sacrificed 10 minutes, 1 hour, 3 hours, 6 hours and 24 hours later. After extracting the brain, lung, liver, kidney and spleen, fluorescence images were acquired and fluorescence signal intensity was measured using a fluorescence imaging system.

[2] = tested on: VX2 carcinoma; assay: Identification of boundary of cancer tissue in lung tumor-induced rabbit model through airway administration of ICG; conditions: ICG 0.75 mg/mL inhaled 4 minutes
Description: (§1) In Example 1, it was confirmed that the ICG administered via the airway through respiration stained the lung tissue quickly and emitted strong fluorescence with little effect on other organs. Then, it was investigated whether the airway administration of ICG can be used to distinguish cancer tissue from normal tissue by staining only the normal tissue in a lung tumor animal model. Specifically, a lung tumor-induced rabbit model was prepared as shown in FIG. 2 by transplanting VX2 carcinoma into the lungs of a rabbit. The rabbit was made to inhale ICG (0.75 mg/mL) for 4 minutes by connecting a nebulizer to a ventilator. 1 hour later, the chest of the rabbit was cut open and the fluorescence images of the lung were acquired using a NIR imaging system. After conducting surgery for pulmonary nodules, the excised lung tissue was prepared into 10 μm-thick cryosections and optical images were acquired using a NIR microscope. Then, the lung tissue was stained with H&E, and the boundary of cancer tissue was observed histologically.

[3] = tested on: lung cancer cells; assay: Distribution of inhaled ICG in mouse lung cancer model with GFP-labeled lung cancer cells; conditions: fluorescence imaging
From the text: In order to investigate the boundary of cancer cells and ICG distribution more accurately, a mouse lung cancer model was established by labeling lung cancer cells with GFP and the distribution of ICG administered through respiration was investigated by fluorescence imaging.

[4] = tested on: VX2 carcinoma; assay: Cancer detection rate (TMDE) in lung tumor-induced rabbit model depending on concentration of administered ICG
Description: as §1
It was investigated whether the desired effect can be achieved with a less amount of ICG administered by airway administration as compared to intravenous administration of ICG. Specifically, after administering ICG at different concentrations (0.1 mg/kg, 0.25 mg/kg, 0.5 mg/kg, 1 mg/kg) in the same manner as in Example 2 to the lung tumor-induced rabbit model of Example 2, the fluorescence images of the lung were acquired and TMDE (tumor margin detection efficiency) depending on the ICG concentration was compared.

[5] = tested on: VX2 carcinoma; assay: Cancer detection rate (TMDE) in lung tumor-induced rabbit model depending on administration route of ICG; conditions: 0.25 mg/kg ICG through respiration vs 5 mg/kg intravenous, TMDE at 1, 3, 6, 24 hours
Description: as §1, with “Then, the lung tissue was stained with H&E, and the boundary of cancer tissue was observed histologically.” left out
Specifically, after extracting the lungs from a lung tumor-induced rabbit model to which 0.25 mg/kg ICG was administered through respiration in the same manner as in Example 2 and a lung tumor-induced rabbit model to which 5 mg/kg ICG was administered intravenously, fluorescence images were acquired and TMDE was quantitated 1 hour later, 3 hours later, 6 hours later and 24 hours later using a NIR imaging system.

[6] = tested on: lung tumor; assay: Visualization of lesion in human lungs through administration of ICG via bronchus
Description: As confirmed in Examples 2-4, remarkably high cancer detection rate could be achieved through airway administration of ICG for lung tumor even with a less amount of ICG. […] Specifically, the lobar bronchi of six lung tumor patients who received surgery for pulmonary nodules in Korea University Guro Hospital were connected with tubes and 0.75 mg/mL ICG was administered for 4 minutes using a nebulizer. Then, fluorescence images were acquired using a NIR imaging system.

[7] = airway administration by nebulizer, ICG 2.5 mg/kg
[8] = airway administration, extracted organs, fluorescence imaging
[9] = six lung tumor patients, 0.75 mg/mL ICG via lobar bronchus 4 minutes

time after administration at which fluorescence is emitted in the lungs [1, 7]: ≤ 10 min
time after administration at which fluorescence signals could still be detected [1, 7]: ≥ 24 h
time of peak fluorescence signals after administration [1, 7]: 1 h
distribution of ICG in the kidney and spleen [1, 8]: almost nonexistent
SMILES: CC1(C)C(/C=C/C=C/C=C/C=C2\N(CCCCS(=O)(=O)O)c3ccc4ccccc4c3C2(C)C)=[N+](CCCCS(=O)(=O)[O-])c2ccc3ccccc3c21 [ICG, Indocyanine green]
distribution of ICG in the lung [1, 8]: present at high concentrations particularly in the lung
boundary of cancer tissue identified by ICG versus H&E histology [2]: consistent with the histologically observed boundary of cancer
diameter of the cancer tissue negatively contrasted by ICG ([2]; imaged 1 hour later): 2 mm
distribution of inhaled ICG in cancer tissue versus normal tissue ([2]; imaged 1 hour later): not distributed in the cancer tissue but stains the normal tissue only
distribution of ICG administered through respiration [3]: distributed through the lungs except for the lung cancer cells
ICG concentration needed for accurate detection of the boundary of lung tumor ([4]; airway administration): ≥ 0.25 mg/kg
detection of boundary of cancer tissue ([4]; airway administration of ICG at 0.1, 0.25, 0.5 and 1 mg/kg): could be detected effectively
lung tumor detection rate (TMDE) versus ICG concentration ([4]; airway administration, 0.1-1 mg/kg): increased depending on the concentration of ICG
cancer detection rate (TMDE) of respiration administration relative to intravenous administration [5]: ≥ 2.5 times
TMDE ([6]; six lung tumor patients (Case 1-6, one value per patient), 0.75 mg/mL ICG via lobar bronchus 4 minutes by nebulizer): 2.8 (2×) and 2.7 and 3.3 and 2.6 and 3.4
boundary between cancer tissue and normal tissue versus pathology [6, 9]: consistent with the pathological outcome for each patient
distribution of inhaled ICG in human lungs [6, 9]: distributed only in the normal tissue of the lungs
